Marks after values point to notes of the source that are not given here.
Columns and labels:
A498 = assay: NCI-60 SRB screening (one-dose and five-dose); type: cell-based, human; conditions: 48 h; for Growth Percent: A498, 10 μM; for GI50: Homo sapiens, A498, five dose 0.01–100 μM
Procedure, shortened: (§1)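 Spectrophotometric SRB end point; 48-h drug exposure; percent of untreated-control growth reported.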

A549/ATCC = assay: NCI-60 SRB screening (one-dose and five-dose); type: cell-based, human; conditions: 48 h; for Growth Percent: 10 μM; for GI50: Homo sapiens, five dose 0.01–100 μM
Procedure, shortened: (§2)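 After a 48-h incubation with compound, cellular protein was stained with SRB and growth estimated by spectrophotometry relative to untreated controls.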

CAKI-1 = assay: NCI-60 SRB screening (one-dose and five-dose); type: cell-based, human; conditions: 48 h; for Growth Percent: CAKI-1, 10 μM; for GI50: Homo sapiens, CAKI-1, five dose 0.01–100 μM
Procedure, shortened: (§3)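 Growth inhibition is scored with sulforhodamine B after 48 h of continuous compound exposure. An MG_MID averages each parameter over the whole cell panel, insensitive lines being counted at the top tested concentration.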

COLO 205 = assay: NCI-60 SRB screening (one-dose and five-dose); type: cell-based, human; conditions: 48 h; for Growth Percent: COLO 205, 10 μM; for GI50: Homo sapiens, COLO 205, five dose 0.01–100 μM
Procedure, shortened: as §2

HOP-62 = assay: NCI-60 SRB screening (one-dose and five-dose); type: cell-based, human; conditions: 48 h; for Growth Percent: HOP-62, 10 μM; for GI50: Homo sapiens, HOP-62, five dose 0.01–100 μM
Procedure, shortened: as §2

HT29 = assay: NCI-60 SRB screening (one-dose and five-dose); type: cell-based, human; conditions: 48 h; for Growth Percent: HT29, 10 μM; for GI50: Homo sapiens, HT-29, HT29, five dose 0.01–100 μM
Procedure, shortened: as §3

IGROV1 = assay: NCI-60 SRB screening (one-dose and five-dose); type: cell-based, human; conditions: 48 h; for GI50: Homo sapiens, IGROV-1, IGROV1, five dose 0.01–100 μM; for Growth Percent: IGROV1, 10 μM
Procedure, shortened: as §3

LOX IMVI = assay: NCI-60 SRB screening (one-dose and five-dose); type: cell-based, human; conditions: 48 h; for GI50: Homo sapiens, five dose 0.01–100 μM
Procedure, shortened: as §1

NCI-H226 = assay: NCI-60 SRB screening (one-dose and five-dose); type: cell-based, human; conditions: 48 h; for GI50: Homo sapiens, NCI-H226, five dose 0.01–100 μM; for Growth Percent: NCI-H226, 10 μM
Procedure, shortened: as §2

NCI-H23 = assay: NCI-60 SRB screening (one-dose and five-dose); type: cell-based, human; conditions: 48 h; for GI50: Homo sapiens, NCI-H23, five dose 0.01–100 μM; for Growth Percent: NCI-H23, 10 μM
Procedure, shortened: as §3

NCI-H522 = assay: NCI-60 SRB screening (one-dose and five-dose); type: cell-based, human; conditions: 48 h; for GI50: Homo sapiens, NCI-H522, five dose 0.01–100 μM; for Growth Percent: NCI-H522, 10 μM
Procedure, shortened: as §1

PC-3 = assay: NCI-60 SRB screening (one-dose and five-dose); type: cell-based, human; conditions: 48 h; for GI50: Homo sapiens, PC-3, five dose 0.01–100 μM; for Growth Percent: PC-3, 10 μM
Procedure, shortened: as §2

RPMI-8226 = assay: NCI-60 SRB screening (one-dose and five-dose); type: cell-based, human; conditions: 48 h; for GI50: Homo sapiens, RPMI-8226, five dose 0.01–100 μM; for Growth Percent: RPMI-8226, 10 μM
Procedure, shortened: as §2

SF-539 = assay: NCI-60 SRB screening (one-dose and five-dose); type: cell-based, human; conditions: 48 h; for GI50: Homo sapiens, SF-539, five dose 0.01–100 μM; for Growth Percent: SF-539, 10 μM
Procedure, shortened: as §2

SNB-19 = assay: NCI-60 SRB screening (one-dose and five-dose); type: cell-based, human; conditions: 48 h; for GI50: Homo sapiens, SNB-19, five dose 0.01–100 μM; for Growth Percent: SNB-19, 10 μM
Procedure, shortened: as §2

SNB-75 = assay: NCI-60 SRB screening (one-dose and five-dose); type: cell-based, human; conditions: 48 h; for GI50: Homo sapiens, SNB-75, five dose 0.01–100 μM; for Growth Percent: SNB-75, 10 μM
Procedure, shortened: as §3

SR = assay: NCI-60 SRB screening (one-dose and five-dose); type: cell-based, human; conditions: 48 h; for GI50: Homo sapiens, five dose 0.01–100 μM
Procedure, shortened: as §1

T-47D = assay: NCI-60 SRB screening (one-dose and five-dose); type: cell-based, human; conditions: 48 h; for GI50: Homo sapiens, T47D, T -47D, five dose 0.01–100 μM; for Growth Percent: T-47D, 10 μM
Procedure, shortened: as §3

U251 = assay: NCI-60 SRB screening (one-dose and five-dose); type: cell-based, human; conditions: 48 h; for GI50: Homo sapiens, U-251, U251, five dose 0.01–100 μM; for Growth Percent: U251, 10 μM
Procedure, shortened: as §1

UACC-62 = assay: NCI-60 SRB screening (one-dose and five-dose); type: cell-based, human; conditions: 48 h; for GI50: Homo sapiens, UACC-62, five dose 0.01–100 μM; for Growth Percent: UACC-62, 10 μM
Procedure, shortened: as §2

[1] = tested on: NCI-60 cancer cell line panel; assay: NCI-60 cancer cell line panel screening (whole panel / subpanels); type: cell-based; conditions: for Selectivity index (SI): full panel MG_MID / subpanel MG_MID; for GI50: Homo sapiens, five-dose testing, all cell lines, read-out: GI50 values, range over the NCI-60 panel
Procedure: At first, compounds were tested in a single high dose concentration regimen (10 µM) against a panel of sixty various cancer cell lines; the results of the screening are outlined in Table 1 in the form of percent growth (GP %) of treated cells versus untreated cells used as control, where negative numbers indicate cell kill. The experimental results of growth inhibition may range from 0 to 100 and indicate a cytostatic effect while negative values indicate cell death and thus a cytotoxic activity (for NCI data see Supplementary Material Figures S6–S12).
The selectivity index (SI) was calculated by dividing the full panel MG_MID60 (μM) of tested compounds by their individual subpanel MG_MID of the cell line (μM); it correlates directly to the selectivity of their anticancer activity (Table 3). […] By contrast, despite its strong antiproliferative effect, compound 7 acts with low selectivity against the various human tumor cell lines, the highest SI value being 1.73.
Compounds 1, 2, and 4–8 were tested at one dose assay (10^−5 M) toward a panel of approximately sixty cancer cell lines representing different cancer types: leukemia, melanoma, lung, colon, CNS, ovarian, renal, prostate, and breast cancers. Primary anticancer assays were performed according to the NCI protocol as described elsewhere (see, e.g., http://dtp.nci.nih.gov accessed on 16 October 2019). The compounds were added at a single concentration and the cell cultures were incubated for 48 h. The end point determinations were made with a protein binding dye, sulforhodamine B (SRB). The results for each compound are reported as the percent growth (GP %) of treated cells compared to untreated control cells (negative numbers indicate cell kill). Compounds with considerable activity against all tested human tumor cell lines (6 and 7) were selected for the advanced assay against a panel of approximately sixty tumor cell lines at 10-fold dilutions of five concentrations (100 µM, 10 µM, 1 µM, 0.1 µM, and 0.01 µM). The percentage of growth was evaluated spectrophotometrically versus controls not treated with test agents after 48-h exposure and using SRB protein assay to estimate cell viability or growth. Three antitumor activity dose–response parameters were calculated for each cell line: GI50—molar concentration of the compound that inhibits 50% net cell growth; TGI—molar concentration of the compound leading to the total inhibition; and LC50—molar concentration of the compound leading to 50% net cell death (presented in negative logarithm). Furthermore, mean graph midpoints (MG_MID) were calculated for each of the parameters, giving an average activity parameter over all cell lines for the tested compound. For the MG_MID calculation, insensitive cell lines were included with the highest concentration tested.

Bcl-2 gene = assay: rtPCR gene expression in RPMI cells; type: cell-based, human
[2] = Non-Small Cell Lung Cancer subpanel

Structure (SMILES): C[C@H]1[C@@H]2[C@H]3CC[C@@H]4[C@@]5(C)C/C(=C\c6cccnc6)C(=O)C(C)(C)[C@@H]5CC[C@@]4(C)[C@]3(C)CC[C@]23CO[C@@]1(C)[C@@H](C(=O)/C=C/c1cccnc1)C3 [Compound 6, 3-Oxo-2-(3-pyridinylidene)-21-[3-(2E-pyridinyl)-prop-2-en-1-one]-20β,28-epoxy-18α,19βH-ursane]
- Growth Percent (A498): −59.07%
- GI50 (A498): 780 nM
- Growth Percent (A549/ATCC): −24.64%
- GI50 (A549/ATCC): 1270 nM
- Growth Percent (CAKI-1): 9.32%
- GI50 (CAKI-1): 1420 nM
- Growth Percent (COLO 205): −56.84%
- GI50 (COLO 205): 1430 nM
- Growth Percent (HOP-62): −13.55%
- GI50 (HOP-62): 1560 nM
- Growth Percent (HT29): 26.36%
- GI50 (HT29): 1500 nM
- GI50 (IGROV1): 960 nM
- Growth Percent (IGROV1): 1.25%
- Growth Percent (LOX IMVI; 10 μM): −85.19%
- GI50 (LOX IMVI): 890 nM
- GI50 (NCI-H226): 1020 nM
- Growth Percent (NCI-H226): −13.51%
- GI50 (NCI-H23): 1040 nM
- Growth Percent (NCI-H23): −48.71%
- GI50 (NCI-H522): 1360 nM
- Growth Percent (NCI-H522): −34.35%
- GI50 (PC-3): 260 nM
- Growth Percent (PC-3): −3.56%
- GI50 (RPMI-8226): 160 nM
- Growth Percent (RPMI-8226): 5.06%
- GI50 (SF-539): 1020 nM
- Growth Percent (SF-539): −32.36%
- GI50 (SNB-19): 850 nM
- Growth Percent (SNB-19): 2.48%
- GI50 (SNB-75): 1020 nM
- Growth Percent (SNB-75): 32.69%
- GI50 (SR): 160 nM
- GI50 (T-47D): 1980 nM
- Growth Percent (T-47D): 24.61%
- GI50 (U251): 1040 nM
- Growth Percent (U251): −68.02%
- GI50 (UACC-62): 600 nM
- Growth Percent (UACC-62): −25.57%
- Selectivity index (SI) ([1]; Breast Cancer subpanel): 0.96
- Selectivity index (SI) ([1]; CNS Cancer subpanel): 0.96
- Selectivity index (SI) ([1]; Colon Cancer subpanel): 1.10
- GI50 [1]: 30 to 5900 nM
- Selectivity index (SI) ([1]; Leukemia subpanel): 5.30
- Selectivity index (SI) ([1]; Melanoma subpanel): 1.01
- Selectivity index (SI) [1, 2]: 0.87
- Selectivity index (SI) ([1]; Ovarian Cancer subpanel): 0.57
- Selectivity index (SI) ([1]; Prostate Cancer subpanel): 1.86
- Selectivity index (SI) ([1]; Renal Cancer subpanel): 1.01
- Bcl-2 gene expression, Mean (Bcl-2 gene): 0.246 **

Structure (SMILES): COC(=O)[C@]12CC[C@@H](C(=O)/C=C/c3cccnc3)[C@@H]1[C@H]1CC[C@@H]3[C@@]4(C)C/C(=C\c5cccnc5)C(=O)C(C)(C)[C@@H]4CC[C@@]3(C)[C@]1(C)CC2 [Compound 7, methyl 2,30-bis-(3-pyridinylidene)-3,20-dioxo-lup-28-oate]
- Growth Percent (A498): −91.17%
- GI50 (A498): 180 nM
- Growth Percent (A549/ATCC): −9.34%
- GI50 (A549/ATCC): 390 nM
- Growth Percent (CAKI-1): −78.75%
- GI50 (CAKI-1): 1090 nM
- Growth Percent (COLO 205): −45.07%
- GI50 (COLO 205): 360 nM
- Growth Percent (HOP-62): −85.57%
- GI50 (HOP-62): 690 nM
- Growth Percent (HT29): −45.47%
- GI50 (HT29): 320 nM
- GI50 (IGROV1): 270 nM
- Growth Percent (IGROV1): −87.88%
- GI50 (LOX IMVI): 210 nM
- GI50 (NCI-H226): 1480 nM
- Growth Percent (NCI-H226): −44.44%
- GI50 (NCI-H23): 350 nM
- Growth Percent (NCI-H23): −48.31%
- GI50 (NCI-H522): 660 nM
- Growth Percent (NCI-H522): −59.72%
- GI50 (PC-3): 420 nM
- Growth Percent (PC-3): −14.12%
- GI50 (RPMI-8226): 240 nM
- Growth Percent (RPMI-8226): −28.73%
- GI50 (SF-539): 240 nM
- Growth Percent (SF-539): −96.48%
- GI50 (SNB-19): 690 nM
- Growth Percent (SNB-19): −87.62%
- GI50 (SNB-75): 1350 nM
- Growth Percent (SNB-75): −98.68%
- Growth Percent (SR; 10 μM): −14.07%
- GI50 (SR): 270 nM
- GI50 (T-47D): 430 nM
- Growth Percent (T-47D): −43.57%
- GI50 (U251): 360 nM
- Growth Percent (U251): −87.90%
- GI50 (UACC-62): 400 nM
- Growth Percent (UACC-62): −67.85%
- Selectivity index (SI) ([1]; Breast Cancer subpanel): 1.34
- Selectivity index (SI) ([1]; CNS Cancer subpanel): 0.72
- Selectivity index (SI) ([1]; Colon Cancer subpanel): 1.07
- GI50 [1]: 180 to 1530 nM
- Selectivity index (SI) ([1]; Leukemia subpanel): 1.73
- Selectivity index (SI) ([1]; Melanoma subpanel): 1.59
- Selectivity index (SI) [1, 2]: 0.65
- Selectivity index (SI) ([1]; Ovarian Cancer subpanel): 0.98
- Selectivity index (SI) ([1]; Prostate Cancer subpanel): 0.50
- Selectivity index (SI) ([1]; Renal Cancer subpanel): 1.23
- Bcl-2 gene expression, Mean (Bcl-2 gene): 0.313
